Source: PMC7375240, “Covalent Inhibitors Allosterically Block the Activation of Rho Family Proteins and Suppress Cancer Cell Invasion” (Advanced Science, 2020)

Key:
Cdc42 = molecular target: T1, Cdc42 (Homo sapiens, UniProt P60953); assay: pull-down of Cdc42 with its GEF; format: binding; settings: Cdc42-GEF interaction (GEF probably human intersectin1 […]-1571), pH […]
T1 construct: full length, His6-tagged (pET28a), E. coli BL21(DE3)

Rac1 = molecular target: T2, Rac1 (Homo sapiens, UniProt P63000); assay: pull-down of Rac1 with its GEF; format: binding; settings: Rac1-GEF interaction (GEF probably murine Tiam1 […]-1406), pH […]
T2 construct: full length, His6-tagged (pET28a), E. coli BL21(DE3)

T1 sequence (P60953 whole entry): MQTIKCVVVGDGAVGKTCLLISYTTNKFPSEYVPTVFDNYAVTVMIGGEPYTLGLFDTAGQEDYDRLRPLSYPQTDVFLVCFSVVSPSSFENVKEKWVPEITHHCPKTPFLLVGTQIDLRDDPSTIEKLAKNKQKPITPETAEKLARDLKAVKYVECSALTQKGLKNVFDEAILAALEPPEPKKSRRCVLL

SMILES: C=CCOC(=O)C1=CS(=O)(=O)c2ccccc21 [DC-RC-063, DC-Rhoin]
- pull-down of Cdc42 with its GEF (Cdc42): selectively inhibited the interactions between Rho family proteins (RhoA, Cdc42, and Rac1)
- pull-down of Rac1 with its GEF (Rac1): selectively inhibited the interactions between Rho family proteins (RhoA, Cdc42, and Rac1)
